In patent publication US10933056B2, “3-(1H-pyrazol-4-yl)pyridine allosteric modulators of the M4 muscarinic acetylcholine receptor” (Merck Sharp & Dohme Corp., priority 2015, dated 2021) one finds EC50 data, which are given here for 25 compounds.

This assay has as its target T1, human M4 muscarinic acetylcholine receptor (Homo sapiens, UniProt P08173).
T1 construct: expressed in transfected cells; host or cells: CHO-K1
T1 sequence (P08173 1-479): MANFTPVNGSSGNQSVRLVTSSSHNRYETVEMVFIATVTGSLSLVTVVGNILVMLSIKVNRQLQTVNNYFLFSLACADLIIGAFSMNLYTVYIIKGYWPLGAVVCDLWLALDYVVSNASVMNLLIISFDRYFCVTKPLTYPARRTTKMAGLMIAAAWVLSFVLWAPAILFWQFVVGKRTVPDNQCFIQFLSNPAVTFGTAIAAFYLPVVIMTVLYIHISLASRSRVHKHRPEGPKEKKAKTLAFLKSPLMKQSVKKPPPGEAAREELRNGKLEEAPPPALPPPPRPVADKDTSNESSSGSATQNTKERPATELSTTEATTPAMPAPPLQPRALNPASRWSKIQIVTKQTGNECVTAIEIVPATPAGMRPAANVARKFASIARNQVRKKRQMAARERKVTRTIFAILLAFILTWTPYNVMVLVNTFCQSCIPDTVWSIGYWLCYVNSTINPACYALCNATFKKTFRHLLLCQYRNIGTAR
As to the kind of experiment: human FLIPR-based M4 PAM assay (calcium mobilization in CHO-K1 cells with human M4 receptor and Gαqi5). Type of assay: cell-based. The note with it: inflection point of dose response curve, acetylcholine at 20% of maximum response, FLIPR Tetra, read-out: M4 PAM IP. The procedure: (§1) In a typical experiment the M4 muscarinic acetylcholine receptor modulating activity of the compounds of the present invention was determined in accordance with the following experimental method. CHO-K1 cells stably transfected with human M4 receptor and chimeric G-protein Gαqi5 (Coward P, et al., Analytical Biochemistry, 270:242-248 (1999)) are thawed from liquid N2 storage, resuspended in growth medium, plated in black, clear bottom 384 well plates, and incubated 16-20 hours at 37° C., 5% CO2. On the day of assay, growth medium is removed, the cells are washed 2 times with wash buffer, and cells are incubated in dye loading buffer at 37° C., 5% CO2 for ˜1 hour. Following dye loading the cell plates are placed in a FLIPR Tetra instrument and while monitoring dye fluorescence (excitation […]), 10 uL of test substance at increasing concentrations is added, and fluorescence values are recorded for 4 min. Next, 10 uL of acetylcholine is added (final concentration calculated so as to achieve 20% of the maximum acetycholine response), and the fluorescence reading is continued for 3.5 min. In some cases, a third addition of acetylcholine (final concentration calculated to achieve 70% of the maximal acetylcholine response) is performed. The resulting dose response curves are fit to a 4 parameter logistic equation and the final result is determined as the inflection point (IP) of the curve
as §1, with “CHO-K1” for “In a typical experiment the M4 muscarinic acetylcholine receptor modulating activity of the compounds of the present invention was determined in accordance with the following experimental method. CHO-K1”, “Gαqi5” for “Gαqi5 (Coward P, et al., Analytical Biochemistry, 270:242-248 (1999))”, “performed.” for “performed. The resulting dose response curves are fit to a 4 parameter logistic equation and the final result is determined as the inflection point (IP) of the curve”
As for `CN1Cc2ccc(-c3ncc(F)cc3-c3cnn(CC4(C)CCCC4)c3)cc2C1=O` [Example 50, 6-(5-fluoro-3-(1-((1-methylcyclopentyl)methyl)-1H-pyrazol-4-yl)pyridin-2-yl)-2-methylisoindolin-1-one], the EC50 turned out to be 38 nM.

With `C#CCN1Cc2ncc(-c3nc(C#N)ccc3-c3cnn(CC4(C)CCCC4)c3)cc2C1=O` [Example 120, 5-(1-((1-methylcyclopentyl)methyl)-1H-pyrazol-4-yl)-6-(5-oxo-6-(prop-2-yn-1-yl)-6,7-dihydro-5H-pyrrolo[3,4-b]pyridin-3-yl)picolinonitrile], the EC50 amounted to 26 nM.

In the case of `Cc1ccc(-c2cnn(CC3(C)CCCC3)c2)c(-c2ccc3c(c2)C(=O)NC3)n1` [Example 104, 6-(6-methyl-3-(1-((1-methylcyclopentyl)methyl)-1H-pyrazol-4-yl)pyridin-2-yl)isoindolin-1-one], the EC50 turned out to be 14 nM.

As for `Cc1cc(-c2cnn(CC3(C)CCCC3)c2)c(-c2cnc3c(c2)C(=O)N(C)C3)nc1Cl` [Example 100, 3-(6-chloro-5-methyl-3-(1-((1-methylcyclopentyl)methyl)-1H-pyrazol-4-yl)pyridin-2-yl)-6-methyl-6,7-dihydro-5H-pyrrolo[3,4-b]pyridin-5-one], the EC50 came to 26 nM.

Regarding `CN1Cc2ccc(-c3nc4c(cc3-c3cnn(CC5(C)CCCC5)c3)CCC4=O)cc2C1=O` [Example 124, 2-(2-Methyl-3-oxoisoindolin-5-yl)-3-(1-((1-methylcyclopentyl)methyl)-1H-pyrazol-4-yl)-5,6-dihydro-7H-cyclopenta[b]pyridin-7-one], the EC50 was found to be 30 nM.

Regarding `CC1(Cn2cc(-c3cc4c(nc3-c3ccc5c(c3)C(=O)N(CCC#N)C5)CCC4)cn2)CCCC1` [Example 56, 3-(6-(3-(1-((1-methylcyclopentyl)methyl)-1H-pyrazol-4-yl)-6,7-dihydro-5H-cyclopenta[b]pyridin-2-yl)-1-oxoisoindolin-2-yl)propanenitrile], the EC50 stood at 72 nM.

Consider `CN1Cc2ccc(-c3nc(CO)c(F)cc3-c3cnn(CC4(C)CCCC4)c3)cc2C1=O` [Example 41, 6-(5-fluoro-6-(hydroxymethyl)-3-(1-((1-methylcyclopentyl)methyl)-1H-pyrazol-4-yl)pyridin-2-yl)-2-methylisoindolin-1-one], for which the EC50 was 64 nM.

As for `Cc1cc(F)c(-c2cnn(CC3(C)CCCC3)c2)c(-c2ccc3c(c2)C(=O)N(C)C3)n1` [Example 126, 6-(4-fluoro-6-methyl-3-(1-((1-methylcyclopentyl)methyl)-1H-pyrazol-4-yl)pyridin-2-yl)-2-methylisoindolin-1-one], the EC50 is 71 nM.

As for `CC1(Cn2ncc(-c3ccc(C#N)nc3-c3ccc4c(c3)C(=O)N(C3CC3)C4)c2F)CCCC1` [Example 44, 6-(2-cyclopropyl-3-oxoisoindolin-5-yl)-5-(5-fluoro-1-((1-methylcyclopentyl)methyl)-1H-pyrazol-4-yl)picolinonitrile], the EC50 is 54 nM.

As to `CN1Cc2ccc(-c3nc(CF)ccc3-c3cnn(CC4(C)CCCC4)c3)cc2C1=O` [Example 52, 6-(6-(fluoromethyl)-3-(1-((1-methylcyclopentyl)methyl)-1H-pyrazol-4-yl)pyridin-2-yl)-2-methylisoindolin-1-one], the EC50 turned out to be 40 nM.

`CN1Cc2ccc(-c3ncccc3-c3cnn(CC4CCCC4)c3)cc2C1=O` [Example 96, 6-(3-(1-(cyclopentylmethyl)-1H-pyrazol-4-yl)pyridin-2-yl)-2-methylisoindolin-1-one]: the EC50 was determined as 56 nM.

With `Cc1ccc(-c2cnn(CC3(C)CCCC3)c2F)c(-c2ccc3c(c2)C(=O)N(CC2CC2)C3)n1` [Example 30, 2-(cyclopropylmethyl)-6-(3-(5-fluoro-1-((1-methylcyclopentyl)methyl)-1H-pyrazol-4-yl)-6-methylpyridin-2-yl)isoindolin-1-one], the EC50 came out at 18 nM.

As to `NC(=O)c1ccc(-c2cnn(CC3CCCC3)c2)c(-c2ccc3c(c2)C(=O)N(C2CC2)C3)n1` [Example 16, 5-(1-(cyclopentylmethyl)-1H-pyrazol-4-yl)-6-(2-cyclopropyl-3-oxoisoindolin-5-yl)picolinamide], the EC50 amounted to 297 nM.

As to `Cc1ccc(-c2cnn(CC3(C)CCCC3)c2)c(-c2ccc3c(c2)C(=O)NC3=O)n1` [Example 99, 5-(6-methyl-3-(1-((1-methylcyclopentyl)methyl)-1H-pyrazol-4-yl)pyridin-2-yl)isoindoline-1,3-dione], the EC50 is 19 nM.

Consider `Cc1cc(-c2cnn(CC3(C)CCCC3)c2)c(-c2cnc3c(c2)C(=O)N(C)C3)nc1C#N` [Example 112, 3-methyl-6-(6-methyl-5-oxo-6,7-dihydro-5H-pyrrolo[3,4-b]pyridin-3-yl)-5-(1-((1-methylcyclopentyl)-methyl)-1H-pyrazol-4-yl)picolinonitrile], for which the EC50 came out at 27 nM.

With `O=C1c2cc(-c3nc(F)ccc3-c3cnn(CC4CCCC4)c3)ccc2CN1C1CC1` [Example 23, 6-(3-(1-(cyclopentylmethyl)-1H-pyrazol-4-yl)-6-fluoropyridin-2-yl)-2-cyclopropylisoindolin-1-one], the EC50 amounted to 34 nM.

As for `CN1Cc2ccc(-c3nc(C#N)ccc3-c3cnn(CC4CCCC4)c3)cc2C1=O` [Example 11, 5-(1-(cyclopentylmethyl)-1H-pyrazol-4-yl)-6-(2-methyl-3-oxoisoindolin-5-yl)picolinonitrile], the EC50 is 11 nM.

For the compound `O=C1c2cc(-c3ncccc3-c3cnn(CC4CCCC4)c3)ccc2CN1CC1CC1` [Example 84, 6-(3-(1-(Cyclopentylmethyl)-1H-pyrazol-4-yl)pyridin-2-yl)-2-(cyclopropylmethyl)isoindolin-1-one], the EC50 was determined as 47 nM.

As to `CNC(=O)c1ccc(-c2cnn(CC3CCCC3)c2)c(-c2ccc3c(c2)C(=O)N(CC2CC2)C3)n1` [Example 12, 5-(1-(cyclopentylmethyl)-1H-pyrazol-4-yl)-6-(2-(cyclopropylmethyl)-3-oxoisoindolin-5-yl)-N-methylpicolinamide], the EC50 came out at 348 nM.

Take `CC1(Cn2cc(-c3ccc(Cl)nc3-c3cnc4c(c3)C(=O)N(CC3CC3)C4)cn2)CCCC1` [Example 106, 3-(6-chloro-3-(1-((1-methylcyclopentyl)methyl)-1H-pyrazol-4-yl)pyridin-2-yl)-6-(cyclopropylmethyl)-6,7-dihydro-5H-pyrrolo[3,4-b]pyridin-5-one]: the EC50 is 43 nM.

For the compound `CN1C(=O)c2cc(-c3nc(C#N)ccc3-c3cnn(CC4(C)CCCC4)c3)ccc2C1(C)C` [Example 60], the EC50 was 99 nM.

Consider `O=C1c2cc(-c3ncccc3-c3cnn(CC4CCCC4)c3)ccc2CN1c1ccccc1` [Example 83, 6-(3-(1-(cyclopentylmethyl)-1H-pyrazol-4-yl)pyridin-2-yl)-2-phenylisoindolin-1-one], for which the EC50 turned out to be 100 nM.

For the compound `CN1Cc2ccc(-c3nc(C#N)c(Cl)cc3-c3cnn(CC4(C)CCCC4)c3)cc2C1=O` [Example 125, 3-Chloro-6-(2-methyl-3-oxoisoindolin-5-yl)-5-(1-((1-methylcyclopentyl)methyl)-1H-pyrazol-4-yl)picolinonitrile], the EC50 came to 26 nM.

On to `CC1(Cn2cc(-c3ccc(C#N)nc3-c3ccc4c(c3)C(=O)NC4)cn2)CCCC1` [Example 34, 5-(1-((1-methylcyclopentyl)methyl)-1H-pyrazol-4-yl)-6-(3-oxoisoindolin-5-yl)picolinonitrile], for which the EC50 turned out to be 15 nM.

Take `C#Cc1ccc(-c2cnn(CC3(C)CCCC3)c2)c(-c2cnc3c(c2)C(=O)N(CC2CC2)C3)n1` [Example 128, 6-(Cyclopropylmethyl)-3-(6-ethynyl-3-(1-((1-methylcyclopentyl)methyl)-1H-pyrazol-4-yl)pyridin-2-yl)-6,7-dihydro-5H-pyrrolo[3,4-b]pyridin-5-one]: the EC50 came out at 62 nM.
